From BindingDB's records for PubMed 7520908 (Janssen Research Foundation, 1994)
Several values for one entry are separate records, joined by “and”; a condition that tells them apart may be missing. Identical values can stand only once.

Legend:
[1] = target: 5-hydroxytryptamine receptor 1B (Rattus norvegicus, UniProt P28564)
[2] = target: 5-hydroxytryptamine receptor 2A (Rattus norvegicus, UniProt P14842)
[3] = target: 5-hydroxytryptamine receptor 1B (Homo sapiens, UniProt P28222)
[4] = target: D(2) dopamine receptor (Rattus norvegicus, UniProt P61169)
D(2) dopamine receptor, sequence (P61169 whole entry): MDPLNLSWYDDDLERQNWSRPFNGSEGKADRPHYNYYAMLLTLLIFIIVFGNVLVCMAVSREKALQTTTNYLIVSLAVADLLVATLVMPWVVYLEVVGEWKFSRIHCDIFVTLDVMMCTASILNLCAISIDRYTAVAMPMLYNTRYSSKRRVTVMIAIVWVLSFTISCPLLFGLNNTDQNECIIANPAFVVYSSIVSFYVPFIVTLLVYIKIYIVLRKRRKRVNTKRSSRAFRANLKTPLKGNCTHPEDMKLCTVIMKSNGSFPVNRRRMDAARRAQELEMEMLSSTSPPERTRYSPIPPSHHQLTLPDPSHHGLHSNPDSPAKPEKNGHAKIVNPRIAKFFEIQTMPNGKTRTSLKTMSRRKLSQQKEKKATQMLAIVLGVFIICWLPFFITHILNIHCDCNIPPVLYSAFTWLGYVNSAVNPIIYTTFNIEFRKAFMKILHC

[5] = target: T1, 5-hydroxytryptamine receptor 3A (Mus musculus, UniProt P23979)
T1 sequence (P23979 whole entry): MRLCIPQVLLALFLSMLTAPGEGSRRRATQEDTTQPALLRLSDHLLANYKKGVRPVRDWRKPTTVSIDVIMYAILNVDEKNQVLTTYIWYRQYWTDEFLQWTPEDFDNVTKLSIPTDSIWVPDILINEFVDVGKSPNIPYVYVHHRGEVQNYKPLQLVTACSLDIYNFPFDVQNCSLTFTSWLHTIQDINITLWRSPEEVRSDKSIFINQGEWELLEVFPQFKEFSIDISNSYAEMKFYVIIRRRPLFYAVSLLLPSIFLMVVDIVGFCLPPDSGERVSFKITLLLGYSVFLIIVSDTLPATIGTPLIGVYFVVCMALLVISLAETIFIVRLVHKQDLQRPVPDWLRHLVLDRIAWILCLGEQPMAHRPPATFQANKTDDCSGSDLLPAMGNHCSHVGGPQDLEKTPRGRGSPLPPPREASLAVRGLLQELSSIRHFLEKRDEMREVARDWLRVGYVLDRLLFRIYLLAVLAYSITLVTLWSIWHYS

[6] = target: 5-hydroxytryptamine 1D receptor (Bos taurus, UniProt Q8MI13)
5-hydroxytryptamine 1D receptor, sequence (Q8MI13 whole entry): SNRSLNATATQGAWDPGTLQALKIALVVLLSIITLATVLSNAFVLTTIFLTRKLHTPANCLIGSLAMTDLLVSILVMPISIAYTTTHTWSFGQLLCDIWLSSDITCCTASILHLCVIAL

[7] = target: D(3) dopamine receptor (Rattus norvegicus, UniProt P19020)
D(3) dopamine receptor, sequence (P19020 whole entry): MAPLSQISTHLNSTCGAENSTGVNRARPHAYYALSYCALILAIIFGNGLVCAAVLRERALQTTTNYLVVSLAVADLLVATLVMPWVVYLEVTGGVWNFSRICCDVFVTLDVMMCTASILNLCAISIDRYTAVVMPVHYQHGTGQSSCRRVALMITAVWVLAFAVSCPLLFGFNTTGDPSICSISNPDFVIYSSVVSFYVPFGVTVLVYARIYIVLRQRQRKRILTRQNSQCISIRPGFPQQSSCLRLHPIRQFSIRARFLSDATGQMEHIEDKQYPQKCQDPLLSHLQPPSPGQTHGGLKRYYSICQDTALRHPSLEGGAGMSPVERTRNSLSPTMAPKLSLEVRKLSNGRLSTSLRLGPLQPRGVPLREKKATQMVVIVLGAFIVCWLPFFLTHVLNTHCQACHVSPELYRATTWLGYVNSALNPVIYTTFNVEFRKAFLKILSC

[8] = target: T2, 5-hydroxytryptamine receptor 2C (Sus scrofa, UniProt G7ZKZ7)
T2 sequence (G7ZKZ7 whole entry): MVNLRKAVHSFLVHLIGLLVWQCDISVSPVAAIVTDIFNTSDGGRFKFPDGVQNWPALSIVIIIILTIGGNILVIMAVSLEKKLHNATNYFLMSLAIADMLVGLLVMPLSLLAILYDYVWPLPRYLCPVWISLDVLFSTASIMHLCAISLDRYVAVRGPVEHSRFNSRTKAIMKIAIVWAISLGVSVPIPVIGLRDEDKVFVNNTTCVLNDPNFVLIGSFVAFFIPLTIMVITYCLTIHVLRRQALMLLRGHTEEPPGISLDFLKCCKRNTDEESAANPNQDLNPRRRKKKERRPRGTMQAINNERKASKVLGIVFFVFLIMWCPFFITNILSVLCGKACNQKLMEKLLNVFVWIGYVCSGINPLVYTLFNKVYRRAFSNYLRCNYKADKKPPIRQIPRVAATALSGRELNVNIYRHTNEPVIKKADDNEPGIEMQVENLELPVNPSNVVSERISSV

[9] = target: D(1A) dopamine receptor (Rattus norvegicus, UniProt P18901)
D(1A) dopamine receptor, sequence (P18901 whole entry): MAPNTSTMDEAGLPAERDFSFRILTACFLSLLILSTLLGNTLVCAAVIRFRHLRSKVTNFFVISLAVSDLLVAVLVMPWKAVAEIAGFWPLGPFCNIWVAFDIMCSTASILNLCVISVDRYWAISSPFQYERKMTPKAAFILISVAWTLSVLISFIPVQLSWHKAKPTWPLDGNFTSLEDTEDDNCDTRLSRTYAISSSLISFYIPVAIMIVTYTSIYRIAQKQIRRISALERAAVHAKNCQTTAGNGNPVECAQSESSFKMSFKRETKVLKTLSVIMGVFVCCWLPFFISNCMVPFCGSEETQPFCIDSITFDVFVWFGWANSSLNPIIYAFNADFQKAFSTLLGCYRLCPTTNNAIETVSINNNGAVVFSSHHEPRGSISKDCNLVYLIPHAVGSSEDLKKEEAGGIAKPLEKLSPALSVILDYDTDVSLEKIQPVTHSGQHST

5-hydroxytryptamine receptor 1B (Rattus norvegicus, UniProt P28564), sequence (P28564 whole entry): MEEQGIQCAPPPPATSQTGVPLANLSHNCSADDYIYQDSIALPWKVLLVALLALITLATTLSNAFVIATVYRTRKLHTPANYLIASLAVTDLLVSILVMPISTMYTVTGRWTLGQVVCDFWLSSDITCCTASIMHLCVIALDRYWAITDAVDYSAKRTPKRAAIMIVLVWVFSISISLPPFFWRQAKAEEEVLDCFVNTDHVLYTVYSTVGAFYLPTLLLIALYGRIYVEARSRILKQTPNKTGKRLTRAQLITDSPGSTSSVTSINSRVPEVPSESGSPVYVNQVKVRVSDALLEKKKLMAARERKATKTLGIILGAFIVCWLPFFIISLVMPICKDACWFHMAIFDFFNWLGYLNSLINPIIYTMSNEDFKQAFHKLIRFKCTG
5-hydroxytryptamine receptor 1B (Homo sapiens, UniProt P28222), sequence (P28222 whole entry): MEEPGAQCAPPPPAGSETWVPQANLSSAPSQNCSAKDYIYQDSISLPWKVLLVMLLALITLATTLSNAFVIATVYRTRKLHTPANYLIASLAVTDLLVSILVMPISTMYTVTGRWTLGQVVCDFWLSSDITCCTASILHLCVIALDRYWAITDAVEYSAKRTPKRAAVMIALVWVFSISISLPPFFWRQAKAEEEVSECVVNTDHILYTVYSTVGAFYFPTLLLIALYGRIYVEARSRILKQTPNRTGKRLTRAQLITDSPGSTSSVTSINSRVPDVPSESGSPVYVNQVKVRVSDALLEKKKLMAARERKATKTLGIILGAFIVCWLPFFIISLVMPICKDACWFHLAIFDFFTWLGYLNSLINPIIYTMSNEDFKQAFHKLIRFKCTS
5-hydroxytryptamine receptor 2A, sequence (P14842 whole entry): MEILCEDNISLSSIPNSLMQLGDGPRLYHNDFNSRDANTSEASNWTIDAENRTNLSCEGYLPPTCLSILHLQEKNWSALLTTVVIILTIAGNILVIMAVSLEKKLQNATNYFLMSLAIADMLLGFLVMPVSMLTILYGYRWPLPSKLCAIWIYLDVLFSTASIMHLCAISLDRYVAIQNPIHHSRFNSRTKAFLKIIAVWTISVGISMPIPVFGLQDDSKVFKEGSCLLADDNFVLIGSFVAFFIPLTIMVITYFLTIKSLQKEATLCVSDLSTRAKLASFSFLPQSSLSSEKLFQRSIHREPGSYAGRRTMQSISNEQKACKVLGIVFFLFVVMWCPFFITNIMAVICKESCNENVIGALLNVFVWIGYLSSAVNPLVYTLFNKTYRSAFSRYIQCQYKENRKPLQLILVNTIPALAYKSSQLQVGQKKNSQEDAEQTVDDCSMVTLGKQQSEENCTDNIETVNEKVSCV

Structure (SMILES)	Ki [1] [nM]	Ki [2] [nM]	Ki [3] [nM]	Ki [4]	Ki [5] [nM]	Ki [6] [nM]	Ki [7] [nM]	Ki [8] [nM]	Ki [9] [nM]
Cc1nc2n(c(=O)c1CCN1CCC(c3noc4cc(F)ccc34)CC1)CCCC2 [3-{2-[4-(6-Fluoro-benzo[d]isoxazol-3-yl)-piperidin-1-yl]-ethyl}-2-methyl-6,7,8,9-tetrahydro-pyrido[1,2-a]pyrimidin-4-one(risperidone)]	4000								
Cc1nc2n(c(=O)c1CCN1CCC(c3noc4cc(F)ccc34)CC1)CCCC2O (stereo not given) [9-OH-risperidone]	3500	0.22	23	3.5 nM and 3.9 nM and 6.7 nM and 4.6 nM	> 10000	117	13	47	510
